# According to PubChem BioAssay AID1996:
# Conditions: buffer; pH 7.4; 200.0 µM
row,SMILES,solubility kinetic
1,CCc1c(C)nc(SCC(=O)N2CCCCC2CC)[nH]c1=O (centres undefined),44.6 µg/mL
2,O=C(OCc1cc(=O)n2ccsc2n1)c1ccccc1NCCO,> 51.8 µg/mL
3,O=C1C=C(N2CCOCC2)C2(CCCCC2)O1,> 35.6 µg/mL
4,CC(=O)NC12CC3CC(C1)CC(C(=O)OCC(=O)c1cc(C)n(C)c1C)(C3)C2,49.5 µg/mL
5,O=C(CCNC(=O)c1ccco1)Nc1ccc(C(F)(F)F)cc1,23.4 µg/mL
6,O=c1[nH]c(SCc2ccc(Cl)cc2)nc2ccccc12,0.8 µg/mL
7,Cc1onc(-c2ccccc2Cl)c1C(=O)N1CC(C)CC(C)C1 (centres undefined),> 49.9 µg/mL
8,COc1nc(/C=C/N(C)C)c([N+](=O)[O-])c(OC)n1,17.2 µg/mL
9,Cc1ccccc1-c1noc(C(C)NC(=O)c2ccco2)n1 (centres undefined),37.5 µg/mL
10,CO/N=C(\CCC(=O)O)c1cccs1,> 32 µg/mL
11,Cn1c(C(=O)N[C@@H](C(=O)O)c2ccccc2)cc2cc(Cl)ccc21,> 51.4 µg/mL
12,NC(=O)c1ccsc1NC(=O)CCc1ccccc1,37.4 µg/mL
13,CC(=O)Nc1ccccc1,> 20.3 µg/mL
14,Nc1cc(Cl)ccc1C(=O)OCC(=O)N1CCCCCC1,5.4 µg/mL
15,O=C(N/C(=C/c1cccs1)C(=O)N1CCCC1)c1ccccc1,46.5 µg/mL
16,COC(=O)c1cccc(NC(=O)C(C)(C)C)c1,> 35.3 µg/mL
17,Cc1ccc(C(=O)Nc2ncc(C)s2)s1,7.1 µg/mL
18,COc1ccc(/C=C(\C#N)C(=O)NCc2ccccc2)cc1,2.2 µg/mL
19,O=C(COc1ccc2ccc(=O)oc2c1)NCc1ccccn1,> 46.5 µg/mL
20,O=S(=O)(/C=C/c1ccccc1)N1CCOCC1,> 38 µg/mL
21,N#Cc1cc(C#N)c(SCC(=O)NCC2CCCO2)nc1N (centres undefined),> 47.6 µg/mL
22,C=CCN1C(=O)/C(=C2/Sc3ccccc3N2CC)SC1=S,< 0.4 µg/mL

row,SMILES,solubility kinetic
1,CCOC(=O)N1CCN(C(=O)C(C)NC(=O)c2ccco2)CC1 (centres undefined),44.3 µg/mL
2,O=C(O)/C=C/C(=O)NCCc1cccc(Cl)c1,> 38.1 µg/mL
3,CC(NC(=S)NC(=O)c1ccccc1Br)c1ccccc1 (centres undefined),4.9 µg/mL
4,O=C(O)CC(c1cccc(O)c1)N1Cc2ccccc2C1=O (centres undefined),> 44.6 µg/mL
5,COc1cc(C(=O)OCCNC(=O)c2ccccc2)cc(OC)c1OC,> 53.9 µg/mL
6,Cc1sc2ncnc(NCC(O)c3ccccc3)c2c1C (centres undefined),6.6 µg/mL
7,O=C(COc1ccc(F)c(Cl)c1)N1CCCCCCC1,32.8 µg/mL
8,O=C(Nc1cccc(C(F)(F)F)c1)c1cc[n+]([O-])cc1,> 42.3 µg/mL
9,CNc1nc(=S)[nH]c2ccccc12,> 28.7 µg/mL
10,O=c1cc(COc2ccc(Cl)c(Cl)c2)nc2sccn12,1.1 µg/mL
11,O=C(NCc1ccc(F)cc1)Nc1ccccc1,9.3 µg/mL
12,O=C(Cn1cnc([N+](=O)[O-])n1)NC1CC1,> 31.7 µg/mL
13,CCOC(=O)/C(C#N)=C/C=C1/C=CC=CN1C,> 34.5 µg/mL
14,O=C(C1CCCO1)N1CCN(c2ccccn2)CC1 (centres undefined),36.8 µg/mL
15,CCCCN(C(=S)SC)C1CCS(=O)(=O)C1 (centres undefined),36.9 µg/mL
16,O=C(NC(=S)NCc1ccccc1)c1cccc(Cl)c1,< 0.3 µg/mL
17,COc1ccc(NC(=O)c2cccc3ccccc23)cc1,1.4 µg/mL
18,CSC1=NC2(C)CCCCC2C12C=CC(=O)C=C2 (centres undefined),> 39.2 µg/mL
19,CC(C)C1C(=O)CC(c2ccccc2)NC1c1ccccc1 (centres undefined),1.6 µg/mL
20,CC(O)CNCCNCc1cccs1.Cl (centres undefined),> 43.1 µg/mL
21,Cl.N=C(N)SCc1ccc(O)c([N+](=O)[O-])c1,> 39.6 µg/mL
22,CC(C)Cn1c(=O)c2c(nc3n2CCS3)n(C)c1=O,> 42.1 µg/mL

row,SMILES,solubility kinetic
1,CNc1nc(SC)nc2ccccc12,> 30.8 µg/mL
2,CC(NCCN(C)C)C(=O)C12CC3CC(CC(C3)C1)C2.Cl (centres undefined),52.4 µg/mL
3,S=C(NCc1ccc(Cl)c(Cl)c1)NCc1ccco1,23.1 µg/mL
4,CC(=O)Nc1ccc2nc(NC(=O)c3cccs3)sc2c1,3.6 µg/mL
5,COc1cccc(C(=O)OCC(=O)N2CCc3ccccc3C2)c1,46.1 µg/mL
6,O=C(COC(=O)c1cccc(F)c1)NCCC1=CCCCC1,9.5 µg/mL
7,CC(=O)N1CC(=O)Nc2ccc(F)cc2C1c1ccccc1 (centres undefined),> 44.7 µg/mL
8,OC(CN1CCOCC1)Cn1cnc2ccccc21 (centres undefined),> 39.2 µg/mL
9,NC(=O)CSc1nc2ccccc2c(=O)n1Cc1ccccc1,2.5 µg/mL
10,O=C(OCC(=O)N1CCc2ccccc21)c1ccccc1F,1.7 µg/mL
11,CC(=O)c1c[nH]c(C(=O)NCc2cccc(C(F)(F)F)c2)c1,2.2 µg/mL
12,COc1cccc(C(=O)Nc2ccccc2N2CCN(C(=O)c3ccccc3)CC2)c1,15 µg/mL
13,COc1ccc(C(C)NC(=O)CC23CC4CC(CC(C4)C2)C3)cc1 (centres undefined),19.7 µg/mL
14,Nc1ncnc2c1ncn2Cc1ccccc1,> 33.8 µg/mL
15,O=C(Nc1cccc([N+](=O)[O-])c1)C1C2CCCCC21 (centres undefined),0.5 µg/mL
16,Cl.NOCC(=O)O,> 16.4 µg/mL
17,C=CCOc1c(Cl)cc(CNc2nccs2)cc1OC,38.1 µg/mL
18,Cc1cc2oc(=O)cc(CN3CCOCC3)c2c(C)c1Cl,0.9 µg/mL
19,Cc1nc(Nc2ccccc2)sc1C(=O)Nc1ccccc1,1.6 µg/mL
20,O=C(O)C1CCC(N2C(=O)C3C4CCC(C4)C3C2=O)CC1 (centres undefined),> 43.7 µg/mL
21,S=C(NCc1ccc2c(c1)OCO2)NCc1ccco1,> 43.6 µg/mL

# Further lines, results first:
row,solubility kinetic,SMILES
1,> 30.6 µg/mL,CN(C)CCn1c(N)nc2ccccc21
2,> 49 µg/mL,Cc1ccc2oc(C(=O)NCC(c3ccco3)N(C)C)c(C)c2c1 (centres undefined)
3,34.8 µg/mL,CC(C)OC(=O)c1ccc(COC(=O)CNC(=O)c2ccco2)cc1
4,10.1 µg/mL,CCCCn1c(N)c(N(CC)C(=O)c2cccs2)c(=O)[nH]c1=O
5,1.3 µg/mL,Cc1ccc(-c2cc(C(=O)N3CCCCCC3)no2)cc1
6,> 41.6 µg/mL,COc1ccc2nc(SCCC(=O)O)cc(C)c2c1
7,< 0.2 µg/mL,CSc1nc(-c2ccc(Cl)cc2)c(C#N)c(=O)n1C
8,45.2 µg/mL,CCCS(=O)(=O)N1CCCC(C(=O)NCC(OC)OC)C1 (centres undefined)
9,8.4 µg/mL,COc1cc(CNC(=O)C2CC2)ccc1OCc1ccccc1
10,> 30.9 µg/mL,Cc1cc(C(=O)Nc2ccon2)c(C)o1
11,> 44 µg/mL,CN1CCCN(C(=O)CNC(=O)c2ccccc2F)CC1
12,> 33.7 µg/mL,O=C1NCCCN1Cc1ccc(Cl)cc1
13,52.7 µg/mL,CN(c1ccc(C(=O)N2CCCCC2)cc1)S(=O)(=O)c1cccs1
14,6.8 µg/mL,Cc1cc(Cl)nc(Cl)c1C(=O)NCc1ccc(Cl)cc1
15,5.7 µg/mL,Cc1ccn2cc(-c3cccc([N+](=O)[O-])c3)nc2c1
16,45.4 µg/mL,COc1cc(C(NC=O)C(=O)Nc2c(C)cccc2C)ccc1O (centres undefined)
17,19 µg/mL,COc1ccc(C(=O)CC(=O)C(=O)Nc2cccc(F)c2)cc1
18,> 34.8 µg/mL,Cn1c(=O)c2ccccc2n2c(=S)[nH]nc12
19,> 30.8 µg/mL,COC(=O)c1cccc2c1NC(=O)C2=O
20,14.6 µg/mL,NS(=O)(=O)c1ccc(CNC(=O)c2ccc(C(=O)c3ccccc3)cc2)cc1

row,solubility kinetic,SMILES
1,10.3 µg/mL,Cc1ccc(C(=O)N2CCC(Cc3ccccc3)CC2)cc1[N+](=O)[O-]
2,44 µg/mL,Cn1c(CCNC(=O)C2CCCCC2)nc2cc([N+](=O)[O-])ccc21
3,> 43.4 µg/mL,COc1ccccc1CNC(=O)COC(=O)c1ccco1
4,> 43.1 µg/mL,Cc1cccc(C)c1OCC(=O)Nc1c(C)nn(C)c1C
5,> 43.1 µg/mL,COc1ccc(NC(=O)NCc2cccnc2)c(OC)c1
6,< 0.4 µg/mL,Cc1ccc(NC(=S)NC2CCSc3ccccc32)cc1C (centres undefined)
7,> 46.3 µg/mL,O=C1CCc2cc(S(=O)(=O)NC3CCCCC3)ccc2N1
8,4.9 µg/mL,CCc1sc(C(=O)Nc2ccc3c(c2)OCO3)cc1C
9,48.8 µg/mL,Cc1ccc(S(=O)(=O)NCCNC(=O)CN2CCOCC2)cc1
10,> 46.1 µg/mL,CCC(C)C(NC(N)=O)C(=O)Nc1ccc(C(=O)OC)cc1 (centres undefined)
11,44.9 µg/mL,Cc1ccccc1S(=O)(=O)/N=C(/c1ccccc1)N(C)C
12,> 46 µg/mL,CN(Cc1ccc(F)cc1)C(=O)CNC(=O)C1CCCCC1
13,> 49 µg/mL,CC(C)NC(=O)COc1ccc(S(=O)(=O)N2CCCC2)cc1
14,20.6 µg/mL,Cc1cc(C)cc(NC(=S)NCc2ccncc2)c1
15,0.6 µg/mL,CCCN1CCN(C(=S)Nc2sc(CC)cc2C(=O)OC)CC1
16,1.6 µg/mL,CCCCCCC(=O)Nc1ccc(Br)cn1
17,> 53.4 µg/mL,CCN(CC)CCn1c(=S)[nH]c2ccc(Br)cc2c1=O
18,< 0.4 µg/mL,COc1ccc(Cl)cc1NC(=O)NCc1ccc2c(c1)OCO2
19,34.9 µg/mL,O=C(CSc1ccccc1)NCCc1ccc(F)cc1
20,> 42.7 µg/mL,NS(=O)(=O)c1cnccc1Oc1cccc(Cl)c1

row,solubility kinetic,SMILES
1,2.1 µg/mL,CC1CCN(C(=O)CN2C(=O)c3cccc4cccc(c34)C2=O)CC1
2,7.7 µg/mL,O=C(Nc1ccc(Cl)cc1)C1(S(=O)(=O)c2ccccc2)CC1
3,> 45.2 µg/mL,CCc1ccccc1N1CN(Cc2ccco2)CNC1=S
4,3.3 µg/mL,CC1CCCC(NC(=O)COC(=O)/C=C/c2ccc(F)cc2)C1C (centres undefined)
5,> 52.1 µg/mL,CCCn1c(SCC(=O)N2CCOCC2)nnc1-c1ccncc1
6,> 51.3 µg/mL,O=C(COC(=O)c1cccc(Br)c1)NCC1CCCO1 (centres undefined)
7,9.2 µg/mL,CCc1ccc(OCC(=O)OCC(=O)NC2CCCC(C)C2C)cc1 (centres undefined)
8,8.3 µg/mL,COc1cc(C(C)=O)ccc1OCC(=O)Nc1cc(C)on1
9,> 47.9 µg/mL,Cc1cc([N+](=O)[O-])ccc1NC(=O)CCC(=O)N1CCCCC1
10,> 44.5 µg/mL,CCCN1CN=C(NS(=O)(=O)c2ccc(C)cc2)NC1
11,> 51.4 µg/mL,Cc1csc(=O)n1CCC(=O)N(C)Cc1c(F)cccc1Cl
12,13.5 µg/mL,CC(C)(C)c1ccc(NC(=O)COC(=O)C2CCCC2)cc1
13,1.2 µg/mL,CN=C1S/C(=C\c2ccc(Cl)cc2)C(=O)N1C
14,> 34.8 µg/mL,O=S(=O)(NC1CC1)c1ccc(Cl)cc1
15,> 46.3 µg/mL,O=C(/C=C/c1cccc(Cl)c1)NCCCN1CCOCC1
16,3.9 µg/mL,CCN(CC)S(=O)(=O)c1ccc(NC(=O)c2cc(=O)[nH]c3ccccc23)cc1
17,> 57.2 µg/mL,Cc1ccc(NC(=O)CN2C(=O)NC(C)(c3ccc4c(c3)OCO4)C2=O)cc1 (centres undefined)
18,40.3 µg/mL,Cc1ccc(CCNC(=O)CNC(=O)c2cccs2)cc1
19,12.4 µg/mL,O=C(NC1CCSc2ccccc21)c1ccccc1F (centres undefined)
